{"source": "ChEMBL document CHEMBL5154650", "about": "“Identification and optimization of biphenyl derivatives as novel tubulin inhibitors targeting colchicine-binding site overcoming multidrug resistance” (Eur J Med Chem, 2022)", "key": {"A549 [1]": {"system": "A549", "test": "Antiproliferative activity against human A549 cells measured after 72 hrs by SRB assay", "type": "functional, cell-based", "conditions": "Homo sapiens, A549, 72 h"}, "Tubulin (Homo sapiens) [2]": {"biological_target": "T1, Tubulin (Homo sapiens) (UniProt P68371+Q9H4B7+P0DPH7+P68366+Q13509+Q71U36+P04350+Q3ZCM7+P07437+P68363+Q9BQE3+Q6PEY2+Q13885+Q9BVA1+Q9BUF5)", "test": "Inhibition of tubulin (unknown origin) polymerization incubated for 15 mins at 30 uM relative to control", "type": "protein-complex assay"}, "Tubulin (Homo sapiens) [3]": {"biological_target": "T1, Tubulin (Homo sapiens)", "test": "Inhibition of tubulin polymerization in human A549 cells assessed as disruption of microtubule network at 200 nM measured by DAPI staining method", "type": "cell-based"}, "A549 [4]": {"system": "A549", "test": "Induction of cell cycle arrest in human A549 cells assessed as accumulation at G2/M phase at 200 nM measured propidium iodide based flow cytometry analysis", "type": "functional"}, "KB": {"system": "KB", "test": "Antiproliferative activity against human KB cells measured after 72 hrs by SRB assay", "type": "functional, cell-based"}, "[5]": {"test": "Antiproliferative activity against human KB/VCR cells measured after 72 hrs by SRB assay", "type": "functional, cell-based"}, "[6]": {"test": "Resistant index, ratio IC50 for KB/VCR cells over IC50 for KB cells", "type": "functional"}, "KB-V1": {"system": "KB-V1", "test": "Antiproliferative activity against human KB-V1 cells measured after 72 hrs by SRB assay", "type": "functional, cell-based", "conditions": "KB-V1, 72 h"}, "[7]": {"test": "Resistant index, ratio IC50 for KB-V1 cells over IC50 for KB cells", "type": "functional"}, "K562": {"system": "K562", "test": "Antiproliferative activity against human K562 cells measured after 72 hrs by SRB assay", "type": "functional, cell-based", "conditions": "K562, 72 h"}, "K562/Adr": {"system": "K562/Adr", "test": "Antiproliferative activity against human K562/Adr cells measured after 72 hrs by SRB assay", "type": "functional, cell-based"}, "[8]": {"test": "Resistant index, ratio IC50 for K562/Adr cells over IC50 for K562 cells", "type": "functional"}, "4T1": {"system": "4T1", "test": "Antitumor activity against mouse 4T1 cells xenografted in female BALB/c mouse assessed as T/C at 25 mg/kg, ip administered every other day for 14 days", "type": "functional", "conditions": "time 14 day"}, "Tubulin (Homo sapiens) [9]": {"biological_target": "T1, Tubulin (Homo sapiens)", "test": "Inhibition of tubulin polymerization in human A549 cells assessed as disruption of microtubule network at 50 nM measured by DAPI staining method", "type": "cell-based"}, "KB/VCR": {"system": "KB/VCR", "test": "Antiproliferative activity against human KB/VCR cells at 0.3 to 30 nM measured in presence of 10 uM verapamil after 72 hrs by SRB assay", "type": "functional, cell-based", "conditions": "dose 0.3-30 nM"}, "[10]": {"test": "Metabolic stability in human liver microsomes assessed as intrinsic clearance at 1 uM in presence of NADPH measured by LC-MS/MS analysis", "type": "ADME, Microsome"}}, "note": "Calls of active or inactive are those of the source. No cut-off for these calls is given here."}
{"compound": "COc1cccc(-c2ccc(C(=O)c3ccccc3)cc2)c1", "values": [{"measurement": "IC50", "setting": "A549 [1]", "value": 932, "unit": "nM"}]}
{"compound": "COc1cc(C#N)cc(-c2ccc(C(=O)c3ccccc3)cc2)c1", "values": [{"measurement": "IC50", "setting": "A549 [1]", "value": 62, "unit": "nM"}, {"measurement": "inhibition", "setting": "Tubulin (Homo sapiens) [2]", "value": 36.1, "unit": "%"}, {"measurement": "inhibition", "setting": "Tubulin (Homo sapiens) [3]", "value": "Active"}, {"measurement": "Activity", "setting": "A549 [4]", "value": 90, "unit": "%"}, {"measurement": "IC50", "setting": "KB", "value": 37.2, "unit": "nM"}, {"measurement": "IC50", "setting": "[5]", "value": 30.4, "unit": "nM"}, {"measurement": "Ratio IC50", "setting": "[6]", "value": 0.8}, {"measurement": "IC50", "setting": "KB-V1", "value": 36.1, "unit": "nM"}, {"measurement": "Ratio IC50", "setting": "[7]", "value": 1}, {"measurement": "IC50", "setting": "K562", "value": 144, "unit": "nM"}, {"measurement": "IC50", "setting": "K562/Adr", "value": 226, "unit": "nM"}, {"measurement": "Ratio IC50", "setting": "[8]", "value": 1.6}, {"measurement": "T/C", "setting": "4T1", "value": 47.2, "unit": "%"}]}
{"compound": "COc1cc(-c2ccc(C(=O)c3ccccc3)cc2)cc(OC)c1OC", "values": [{"measurement": "IC50", "setting": "A549 [1]", "value": "> 10000", "unit": "nM"}]}
{"compound": "COc1cc(C#N)cc(-c2ccc(C(=O)c3ccccc3)cc2F)c1", "values": [{"measurement": "IC50", "setting": "A549 [1]", "value": 3890, "unit": "nM"}]}
{"compound": "Nc1c(F)cc(Cl)cc1-c1ccc(C(=O)c2ccccc2)cc1", "values": [{"measurement": "IC50", "setting": "A549 [1]", "value": "> 10000", "unit": "nM"}]}
{"compound": "COc1cc(C#N)cc(-c2cc(OC)c(C(=O)c3ccccc3)cc2OC)c1", "values": [{"measurement": "IC50", "setting": "A549 [1]", "value": "> 10000", "unit": "nM"}]}
{"compound": "COc1cc(C#N)cc(-c2ccc(Cc3ccccc3)cc2)c1", "values": [{"measurement": "IC50", "setting": "A549 [1]", "value": "> 10000", "unit": "nM"}]}
{"compound": "COc1cc(C#N)cc(-c2ccc(C(=O)c3ccc(Cl)cc3)cc2)c1", "values": [{"measurement": "IC50", "setting": "A549 [1]", "value": 1070, "unit": "nM"}]}
{"compound": "COc1cc(OC)c(-c2ccc(C(=O)c3ccccc3)cc2)c(OC)c1", "values": [{"measurement": "IC50", "setting": "A549 [1]", "value": "> 10000", "unit": "nM"}]}
{"compound": "COc1cc(C#N)cc(-c2ccc(C(=O)c3cccc(O)c3)cc2)c1", "values": [{"measurement": "IC50", "setting": "A549 [1]", "value": 78, "unit": "nM"}]}
{"compound": "COc1cccc2c1C(=O)c1c(O)c3c(c(O)c1C2=O)C[C@@](O)(C(=O)CO)C[C@@H]3O[C@H]1C[C@H](N)[C@H](O)[C@H](C)O1.Cl", "note": "[DOXORUBICIN HYDROCHLORIDE]", "values": [{"measurement": "IC50", "setting": "K562", "value": 108, "unit": "nM"}, {"measurement": "IC50", "setting": "K562/Adr", "value": 31200, "unit": "nM"}, {"measurement": "Ratio IC50", "setting": "[8]", "value": 287.7}]}
{"compound": "COc1cc(C#N)cc(-c2ccc(C(=O)c3ccccc3)c(N)c2)c1", "values": [{"measurement": "inhibition", "setting": "Tubulin (Homo sapiens) [2]", "value": 75, "unit": "%"}, {"measurement": "inhibition", "setting": "Tubulin (Homo sapiens) [9]", "value": "Active"}, {"measurement": "Activity", "setting": "KB/VCR", "value": "Active"}]}
{"compound": "COc1cc(OC)c(OC)c(-c2ccc(C(=O)c3ccccc3)cc2)c1", "values": [{"measurement": "IC50", "setting": "A549 [1]", "value": "> 10000", "unit": "nM"}]}
{"compound": "COc1ccc(C(=O)c2ccc(-c3cc(C#N)cc(OC)c3)cc2)cc1", "values": [{"measurement": "IC50", "setting": "A549 [1]", "value": "> 10000", "unit": "nM"}]}
{"compound": "COc1cc(C#N)cc(-c2ccc(C(=O)c3ccccn3)cc2)c1", "values": [{"measurement": "IC50", "setting": "A549 [1]", "value": 1640, "unit": "nM"}]}
{"compound": "COc1cc2c(c(OC)c1OC)-c1ccc(OC)c(=O)cc1[C@@H](NC(C)=O)CC2", "note": "[COLCHICINE]", "values": [{"measurement": "IC50", "setting": "KB", "value": 18.2, "unit": "nM"}, {"measurement": "IC50", "setting": "[5]", "value": 294, "unit": "nM"}, {"measurement": "Ratio IC50", "setting": "[6]", "value": 16.1}, {"measurement": "IC50", "setting": "KB-V1", "value": 1340, "unit": "nM"}, {"measurement": "Ratio IC50", "setting": "[7]", "value": 73.5}, {"measurement": "IC50", "setting": "K562", "value": 102, "unit": "nM"}, {"measurement": "IC50", "setting": "K562/Adr", "value": 6550, "unit": "nM"}, {"measurement": "Ratio IC50", "setting": "[8]", "value": 64.4}, {"measurement": "CLH", "setting": "[10]", "value": 0.384, "unit": "mL/min/g"}]}
{"compound": "COc1cc(C#N)cc(-c2ccc(C(=O)c3ccccc3O)cc2)c1", "values": [{"measurement": "IC50", "setting": "A549 [1]", "value": 135, "unit": "nM"}]}
{"compound": "COc1cc(C#N)cc(-c2ccc(C(=O)c3ccc(O)cc3)cc2)c1", "values": [{"measurement": "IC50", "setting": "A549 [1]", "value": "> 10000", "unit": "nM"}]}
{"compound": "COc1cc(C#N)cc(-c2ccc(C(=O)c3ccnc(OC)c3)cc2)c1", "values": [{"measurement": "IC50", "setting": "A549 [1]", "value": 322, "unit": "nM"}]}
{"compound": "COc1ccc(-c2ccc(C(=O)c3ccccc3)cc2)cc1", "values": [{"measurement": "IC50", "setting": "A549 [1]", "value": "> 10000", "unit": "nM"}]}
{"compound": "COc1ccccc1-c1ccc(C(=O)c2ccccc2)cc1", "values": [{"measurement": "IC50", "setting": "A549 [1]", "value": 2910, "unit": "nM"}]}
{"compound": "COc1cc(C#N)cc(-c2ccc(S(=O)(=O)c3ccccc3)cc2)c1", "values": [{"measurement": "IC50", "setting": "A549 [1]", "value": "> 10000", "unit": "nM"}]}
{"compound": "COc1cccc(C(=O)c2ccc(-c3cc(OC)cc(OC)c3)cc2N)c1", "values": [{"measurement": "IC50", "setting": "A549 [1]", "value": 17, "unit": "nM"}]}
{"compound": "COc1cccc(C(=O)c2ccc(-c3cc(C#N)cc(OC)c3)cc2)c1", "values": [{"measurement": "IC50", "setting": "A549 [1]", "value": 54, "unit": "nM"}]}
